The record followed here is patent US6579880B2, “Isoxazoles and oxadiazoles as anti-inflammatory inhibitors of IL-8” (Ortho-McNeil Pharmaceutical, Inc., priority 2000, dated 2003).

For the first experiment, the system named is IL-8 receptor (purified human neutrophils). As to the kind of experiment: radio labeled IL-8 receptor binding assay in purified human neutrophils using I125-IL-8 as ligand. Particulars: Table 1; inhibition of I125-IL-8 (0.125 nM) binding to human neutrophils, 37° C. 60 minutes; read-out: IC50. The protocol:
Neutrophils are purified from fresh human blood by dextran sedimentation in an equal volume of 3% dextran in saline for 30 minutes. After sedimentation, the blood is centrifuged for 10 minutes at 1000 rpm at 4° C. and the supernate is aspirated and discarded. […] Ten mls ficoll is underlaid of the blood and the sample is centrifuged for 40 minutes at 1400 rpm at 25° C. After centrifugation, the supernate is removed and the cells re-suspended for cell counting. Cell volume is adjusted to 8×10^5 cells/ml in binding buffer without BSA.
The plates are then incubated at 37° C. for 60 minutes and the supernate is aspirated to within 2 mm of the bottom of the well. The plates are then sealed and counted for 1 minute in a Packard TopCount.
Drug treated wells are compared to vehicle treated wells for inhibition of binding as determined by a decrease in dpm as compared to the vehicle wells.
% Inhibition is calculated as follows: [formula]
IC50 is calculated using K-Graph.
What is called IC50 is the concentration that inhibits the measured activity by half. Take `CN1CCN(CCCOc2ccc(-c3cc(-c4ccc(C(C)(C)C)cc4)no3)cc2)CC1` [Compound 4, piperazine, 1-[3-[4-[3-[4-(1,1-dimethylethyl)phenyl]-5-isoxazolyl]phenoxy]propyl]-4-methyl-]: the half-inhibitory concentration (IC50) was found to be 2.7 µM.
Turning to `CN1CCN(CCCOc2ccc(-c3cc(-c4ccc(Cl)c(C(F)(F)F)c4)no3)cc2)CC1` [Compound 8, piperazine, 1-[3-[4-[3-[4-chloro-3-(trifluoromethyl)phenyl]-5-isoxazolyl]phenoxy]propyl]-4-methyl-], the IC50 stood at 2.7 µM.
Take `Clc1ccc(-c2noc(-c3ccc(OCCCN4CCNCC4)cc3)n2)cc1` [Compound 15, piperazine, 1-[3-[4-[3-(4-chlorophenyl)-1,2,4-oxadiazol-5-yl]phenoxy]propyl]-]: the half-maximal inhibitory concentration (IC50) was 2.8 µM.

The same experiment, now with this note: Table 2; inhibition of I125-IL-8 (0.125 nM) binding to human neutrophils, 37° C. 60 minutes; read-out: IC50.
With `Cc1ccc(-c2cc(-c3ccc(OCCCN(C)C)cc3)no2)cc1` [Compound 19], the IC50 came out at 5.1 µM.
For the compound `CN(C)CCCOc1ccc(-c2cc(-c3ccc(Cl)cc3)on2)cc1` [Compound 21, 1-propanamine, 3-[4-[5-(4-chlorophenyl)-3-isoxazolyl]phenoxy]-N, N-dimethyl-], the IC50 worked out at 2.7 µM.
For the compound `CN(C)CCCOc1ccc(-c2cc(-c3ccc(F)cc3)on2)cc1` [Compound 22], the IC50 amounted to 3.1 µM.
For `CN1CCN(CCCOc2ccc(-c3cc(-c4ccccc4)on3)cc2)CC1` [Compound 25], the IC50 turned out to be 6.2 µM.
Turning to `CN1CCN(CCCOc2ccc(-c3cc(-c4ccc(Cl)cc4)on3)cc2)CC1` [Compound 27, piperazine, 1-[3-[4-[5-(4-chlorophenyl)-3-isoxazolyl]phenoxy]propyl]-4-methyl-], the IC50 is 1.6 µM.
Turning to `CN(C)CCCOc1ccc(-c2noc(-c3ccccc3)c2Br)cc1` [Compound 28], the concentration for half-maximal inhibition (IC50) worked out at 10.9 µM.
For `CN(C)CCCOc1ccc(-c2noc(-c3ccccc3)c2Cl)cc1` [Compound 29], the half-inhibitory concentration (IC50) came out at 6 µM.
As for `CN(C)CCCOc1cccc(-c2cc(-c3ccc(Cl)cc3)on2)c1` [Compound 32], the half-inhibitory concentration (IC50) came to 8.1 µM.
Take `Cc1ccc(-c2cc(-c3cccc(OCCCN(C)C)c3)no2)cc1` [Compound 33]: the half-maximal inhibitory concentration (IC50) turned out to be 5.1 µM.
For `CN(C)CCCOc1cccc(-c2cc(-c3ccccc3)on2)c1` [Compound 34], the concentration for half-maximal inhibition (IC50) is 10.3 µM.
Take `CN1CCN(CCCOc2ccccc2-c2cc(-c3ccccc3)on2)CC1` [Compound 35]: the IC50 is 12.1 µM.
Still for that read-out and setting: then `CN1CCN(CCCOc2ccccc2-c2cc(-c3ccc(Cl)cc3)on2)CC1` [Compound 36], with 5.6 µM; and `CCN(CC)CCCOc1ccccc1-c1cc(-c2ccccc2)on1` [Compound 37], with 6.5 µM; and `CN(C)CCCOc1ccccc1-c1cc(-c2ccc(Cl)cc2)on1` [Compound 38], with 4.4 µM.
For the compound `CN1CCN(CCCCOc2ccc(-c3cc(-c4ccc(Cl)cc4)on3)cc2)CC1` [Compound 39], the half-inhibitory concentration (IC50) was found to be 8.9 µM.
The same measure, in the same setting: then `CN(C)CCCCOc1ccc(-c2cc(-c3ccc(Cl)cc3)on2)cc1` [Compound 40], with 3.9 µM; and `CN1CCN(CCCCOc2ccccc2-c2cc(-c3ccc(Cl)cc3)on2)CC1` [Compound 41], with 11 µM.

Staying with this experiment, now noted: Table 3; inhibition of I125-IL-8 (0.125 nM) binding to human neutrophils, 37° C. 60 minutes; read-out: IC50.
In the case of `CN1CCCC(COc2ccc(-c3cc(-c4ccccc4)on3)cc2)C1` (stereo not shown) [Compound 43], the IC50 worked out at 5.3 µM.
Take `CN1CCC(Oc2ccc(-c3cc(-c4ccccc4)on3)cc2)CC1` [Compound 44]: the 50% inhibitory concentration (IC50) was determined as 7.6 µM.

Still in this experiment, the particulars now being: Table 4; inhibition of I125-IL-8 (0.125 nM) binding to human neutrophils, 37° C. 60 minutes; read-out: IC50.
Regarding `CN(C)CCCNC(=O)c1ccc(-c2cc(-c3ccc(Cl)cc3)on2)cc1` [Compound 45], the IC50 is 5.8 µM.
In the case of `CN1CCN(CCCNC(=O)c2ccc(-c3cc(-c4ccc(Cl)cc4)on3)cc2)CC1` [Compound 46], the IC50 was 6.1 µM.
Regarding `COc1ccc(-c2cc(-c3ccc(C(=O)NCCCN(C)C)cc3)no2)cc1` [Compound 48], the IC50 came out at 18.1 µM.

The experiment is the same for the next values; noted with them: Table 6; inhibition of I125-IL-8 (0.125 nM) binding to human neutrophils, 37° C. 60 minutes; read-out: IC50.
For `CN(C)CCCNc1ccc(-c2nc(-c3ccc(Cl)cc3)no2)cn1` [Compound 54, 1,3-propanediamine, N^1-[5-[3-(4-chlorophenyl)-1,2,4-oxadiazol-5-yl]-2-pyridinyl]-N^3, N^3-dimethyl-], the IC50 stood at 5.35 µM.
On the same count and under the same terms, next, `CN(C)CCCOc1ccc(-c2nc(-c3ccc(Cl)cc3)no2)cn1` [Compound 55]: 4.78 µM.

Staying with this experiment, now noted: unlabelled IL-8 as standard in the I125-IL-8 binding assay; read-out: IC50 of standard antagonist.
With “Unlabelled IL-8: Unlabelled IL-8 (Interleukin-8, chemotactic cytokine) serves as the standard antagonist in the binding assay [reference compound]”, the half-inhibitory concentration (IC50) was approximately 0.001 µM.
